Counter-ions that a name gives are not always drawn.
The compounds below were run against human PDGFRβ (Homo sapiens (Human), UniProt P09619) (assay: PDGFRβ kinase assay (PDGFRβ-HTRF)). Settings: 10 μM ATP; some mean values from multiple determinations.
Assay type: biochemical
Outline: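 GST-fused human PDGFRβ fragment (R561-L1106) from Sf9 cells was preincubated 15 min with compound in 50 mM HEPES pH 7.5, 10 mM MgCl2, 2.5 mM DTT, 0.01% Triton X-100; substrate was biotinylated poly-Glu,Tyr (4:1).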

Sequence of human PDGFRβ (P09619 561-1106): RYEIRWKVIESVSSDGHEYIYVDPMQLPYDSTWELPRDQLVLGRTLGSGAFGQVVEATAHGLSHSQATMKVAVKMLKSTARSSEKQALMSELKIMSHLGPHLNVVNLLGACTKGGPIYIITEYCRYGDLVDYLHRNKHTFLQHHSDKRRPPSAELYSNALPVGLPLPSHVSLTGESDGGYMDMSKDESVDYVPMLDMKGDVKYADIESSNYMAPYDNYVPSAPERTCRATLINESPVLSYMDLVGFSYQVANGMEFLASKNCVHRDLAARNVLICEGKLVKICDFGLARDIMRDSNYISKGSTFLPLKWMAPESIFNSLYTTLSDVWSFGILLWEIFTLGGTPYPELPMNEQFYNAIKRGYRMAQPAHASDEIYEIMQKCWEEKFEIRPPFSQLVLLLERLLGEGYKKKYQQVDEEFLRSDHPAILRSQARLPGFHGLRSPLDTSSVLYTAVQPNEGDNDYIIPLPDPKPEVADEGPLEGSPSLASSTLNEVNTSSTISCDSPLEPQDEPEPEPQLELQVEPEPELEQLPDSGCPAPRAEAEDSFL

SMILES	IC50 [nM]
Cc1cc(F)c(Nc2ccnc3c2C(=O)Nc2cc(CNC(C)C)ccc2N3)cc1O [Example 48, 4-[(2-Fluoro-5-hydroxy-4-methylphenyl)amino]-8-[(isopropylamino)methyl]-6,11-dihydro-5H-pyrido[2,3-b][1,5]benzodiazepin-5-one]	1.01
CCCCN(CC)Cc1ccc2c(c1)NC(=O)c1c(Nc3cc(O)c(C)cc3F)ccnc1N2 [Example 53, 8-{[Butyl(ethyl)amino]methyl}-4-[(2-fluoro-5-hydroxy-4-methylphenyl)amino]-6,11-dihydro-5H-pyrido[2,3-b][1,5]benzodiazepin-5-one]	0.962
Cc1cc(F)c(Nc2ccnc3c2C(=O)Nc2cc(CN4CC[C@H](N(C)C)C4)ccc2N3)cc1O [Example 220, 8-{[(3S)-3-(Dimethylamino)pyrrolidin-1-yl]methyl}-4-[(2-fluoro-5-hydroxy-4-methylphenyl)amino]-6,11-dihydro-5H-pyrido[2,3-b][1,5]benzodiazepin-5-one]	2.15
CCN(Cc1ccc2c(c1)NC(=O)c1c(Nc3cc(O)c(C)cc3F)ccnc1N2)CC(C)O (single isomer, unassigned; ent-8) [Example 205, ent-8-{[Ethyl(2-hydroxypropyl)amino]methyl}-4-[(2-fluoro-5-hydroxy-4-methylphenyl)amino]-6,11-dihydro-5H-pyrido[2,3-b][1,5]benzodiazepin-5-one (Enantiomer 1)]	1.76
CCCNCc1ccc2c(c1)NC(=O)c1c(Nc3cc(O)ccc3C)ccnc1N2 [Example 125]	1.97
Cc1ccc(O)cc1Nc1ccnc2c1C(=O)Nc1cc(CNC3CCCC3)ccc1N2 [Example 154]	2.1
Cc1cc(F)c(Nc2ccnc3c2C(=O)Nc2cc(CNC4CC(OC(C)C)C4)ccc2N3)cc1O (stereo not shown) [Example 190, 4-[(2-Fluoro-5-hydroxy-4-methylphenyl)amino]-8-{[(3-isopropoxycyclobutyl)amino]methyl}-6,11-dihydro-5H-pyrido[2,3-b][1,5]benzodiazepin-5-one]	1.22
Cc1ccc(O)cc1Nc1ccnc2c1C(=O)Nc1cc(CNCCN3CCCCCC3)ccc1N2 [Example 111]	4.03
Cc1ccc(O)cc1Nc1ccnc2c1C(=O)Nc1cc(CNCCOCC3CCCO3)ccc1N2 (stereo not shown) [Example 133]	7.53
Cc1ccc(O)cc1Nc1ccnc2c1C(=O)Nc1cc(CNCC3CNC(=O)C3)ccc1N2 (stereo not shown) [Example 130]	2.31
Cc1ccc(O)cc1Nc1ccnc2c1C(=O)Nc1cc(CNCC(C)(C)C)ccc1N2 [Example 142]	2.11
CCN(CC)C(=O)c1ccc2c(c1)NC(=O)c1c(Nc3cc(O)c(C)cc3F)ccnc1N2 [Example 84, N,N-Diethyl-4-[(2-fluoro-5-hydroxy-4-methylphenyl)amino]-5-oxo-6,11-dihydro-5H-pyrido[2,3-b][1,5]benzodiazepine-8-carboxamide]	14.6
Cc1cc(F)c(Nc2ccnc3c2C(=O)Nc2cc(C(=O)O)ccc2N3)cc1O [Example 79, 4-[(2-Fluoro-5-hydroxy-4-methylphenyl)amino]-5-oxo-6,11-dihydro-5H-pyrido[2,3-b][1,5]benzodiazepine-8-carboxylic acid]	213
Cc1cc(F)c(Nc2ccnc3c2C(=O)Nc2cc(CN4CCN5C(=O)C(C)NC(=O)C5C4)ccc2N3)cc1O (racemic) [Example 194, rac-8-({4-[(2-Fluoro-5-hydroxy-4-methylphenyl)amino]-5-oxo-6,11-dihydro-5H-pyrido[2,3-b][1,5]benzodiazepin-8-yl}methyl)-3-methyltetrahydro-2H-pyrazino[1,2-a]pyrazine-1,4(3H,6H)-dione]	1.92
Cc1ccc(O)cc1Nc1ccnc2c1C(=O)Nc1cc(CNCCc3ccncc3)ccc1N2 [Example 123]	7.14
N#Cc1ccc2c(c1)NC(=O)c1c(Nc3cc(O)c(F)cc3F)ccnc1N2 [Example 38, 4-[(2,4-Difluoro-5-hydroxyphenyl)amino]-5-oxo-6,11-dihydro-5H-pyrido[2,3-b][1,5]benzodiazepine-8-carbonitrile]	7.03
N#Cc1ccc2c(c1)NC(=O)c1c(Nc3cc(O)c(Cl)cc3Cl)ccnc1N2 [Example 10, 4-[(2,4-Dichloro-5-hydroxyphenyl)amino]-5-oxo-6,11-dihydro-5H-pyrido[2,3-b][1,5]benzodiazepine-8-carbonitrile]	65.9
Cc1ccc(O)cc1Nc1ccnc2c1C(=O)Nc1cc(CNCCCOC(C)C)ccc1N2 [Example 149]	1.74
Cc1ccc(O)cc1Nc1ccnc2c1C(=O)Nc1cc(CNCc3ccccc3)ccc1N2 [Example 145]	5.82
Cc1ccc(O)cc1Nc1ccnc2c1C(=O)Nc1cc(CNCCN3CCCC3=O)ccc1N2 [Example 141]	3.48

SMILES	IC50 [nM]
CCN(CC)Cc1ccc2c(c1)NC(=O)c1c(Nc3cc(O)ccc3C)ccnc1N2 [Example 39, 8-[(Diethylamino)methyl]-4-[(5-hydroxy-2-methylphenyl)amino]-6,11-dihydro-5H-pyrido[2,3-b][1,5]benzodiazepin-5-one]	1.86
Cc1ccc(O)cc1Nc1ccnc2c1C(=O)Nc1cc(CNC3CCOCC3)ccc1N2 [Example 136]	2.05
Cc1cc(F)c(Nc2ccnc3c2C(=O)Nc2cc(CN4CCC(C)(C)CC4)ccc2N3)cc1O [Example 56, 8-[(4,4-Dimethylpiperidin-1-yl)methyl]-4-[(2-fluoro-5-hydroxy-4-methylphenyl)amino]-6,11-dihydro-5H-pyrido[2,3-b][1,5]benzodiazepin-5-one]	1.49
Cc1ccc(O)cc1Nc1ccnc2c1C(=O)Nc1cc(CNCC(C)C)ccc1N2 [Example 152]	4.42
Cc1ccc(O)cc1Nc1ccnc2c1C(=O)Nc1cc(CNC3CCS(=O)(=O)C3)ccc1N2 (stereo not shown) [Example 113]	3.6
CCOC1CCCN(Cc2ccc3c(c2)NC(=O)c2c(Nc4cc(O)c(C)cc4F)ccnc2N3)C1 (racemic) [Example 67, rac-8-[(3-Ethoxypiperidin-1-yl)methyl]-4-[(2-fluoro-5-hydroxy-4-methylphenyl)amino]-6,11-dihydro-5H-pyrido[2,3-b][1,5]benzodiazepin-5-one]	2.23
N#Cc1ccc2c(c1)NC(=O)c1c(Nc3cc(O)c(Br)cc3F)ccnc1N2 [Example 7, 4-[(4-Bromo-2-fluoro-5-hydroxyphenyl)amino]-5-oxo-6,11-dihydro-5H-pyrido[2,3-b][1,5]benzodiazepine-8-carbonitrile]	9.47
Cc1ccc(O)cc1Nc1ccnc2c1C(=O)Nc1cc(CNc3ccccc3F)ccc1N2 [Example 147]	52.9
Cc1cc(F)c(Nc2ccnc3c2C(=O)Nc2cc(CN4CCN(CCO)CC4)ccc2N3)cc1O [Example 47, 4-[(2-Fluoro-5-hydroxy-4-methylphenyl)amino]-8-{[4-(2-hydroxyethyl)piperazin-1-yl]methyl}-6,11-dihydro-5H-pyrido[2,3-b][1,5]benzodiazepin-5-one]	3.67
Cc1cc(F)c(Nc2ccnc3c2C(=O)Nc2cc(C(=O)NC4CCCC(O)C4)ccc2N3)cc1O (stereo not shown) [Example 81, 4-[(2-Fluoro-5-hydroxy-4-methylphenyl)amino]-N-(3-hydroxycyclohexyl)-5-oxo-6,11-dihydro-5H-pyrido[2,3-b][1,5]benzodiazepine-8-carboxamide]	1.31
Cc1cc(F)c(Nc2ccnc3c2C(=O)Nc2cc(CN4CC(=O)N(C(C)C)C(C)(C)C4)ccc2N3)cc1O [Example 196, 4-[(2-Fluoro-5-hydroxy-4-methylphenyl)amino]-8-[(4-isopropyl-3,3-dimethyl-5-oxopiperazin-1-yl)methyl]-6,11-dihydro-5H-pyrido[2,3-b][1,5]benzodiazepin-5-one]	9.38
CCOC(=O)[C@H]1C[C@H](NCc2ccc3c(c2)NC(=O)c2c(Nc4cc(O)c(C)cc4F)ccnc2N3)C1 [Example 192, trans-Ethyl 3-[({4-[(2-fluoro-5-hydroxy-4-methylphenyl)amino]-5-oxo-6,11-dihydro-5H-pyrido[2,3-b][1,5]benzodiazepin-8-yl}methyl)amino]cyclobutanecarboxylate]	1.61
COCCCNCc1ccc2c(c1)NC(=O)c1c(Nc3cc(O)ccc3C)ccnc1N2 [Example 129]	3.99
CCN(CCN(C)C)Cc1ccc2c(c1)NC(=O)c1c(Nc3cc(O)c(C)cc3F)ccnc1N2 [Example 199, 8-({[2-(Dimethylamino)ethyl](ethyl)amino}methyl)-4-[(2-fluoro-5-hydroxy-4-methylphenyl)amino]-6,11-dihydro-5H-pyrido[2,3-b][1,5]benzodiazepin-5-one]	1.31
Cc1ccc(O)cc1Nc1ccnc2c1C(=O)Nc1cc(CNCCCCO)ccc1N2 [Example 17, 8-{[(4-Hydroxybutyl)amino]methyl}-4-[(5-hydroxy-2-methylphenyl)amino]-6,11-dihydro-5H-pyrido[2,3-b][1,5]benzodiazepin-5-one]	5.63
CCCOC1CCCN(Cc2ccc3c(c2)NC(=O)c2c(Nc4cc(O)c(C)cc4F)ccnc2N3)C1 (racemic) [Example 68, rac-4-[(2-Fluoro-5-hydroxy-4-methylphenyl)amino]-8-[(3-propoxypiperidin-1-yl)methyl]-6,11-dihydro-5H-pyrido[2,3-b][1,5]benzodiazepin-5-one]	1.85
Cc1ccc(O)cc1Nc1ccnc2c1C(=O)Nc1cc(CNC(C)C3CC=CCC3)ccc1N2 (stereo not shown) [Example 100]	1.66
Cc1ccc(O)cc1Nc1ccnc2c1C(=O)Nc1cc(CNCc3ccc(F)cc3)ccc1N2 [Example 119]	1.92
Cc1ccc(O)cc1Nc1ccnc2c1C(=O)Nc1cc(CNCc3cccc(F)c3F)ccc1N2 [Example 94]	3.52

Same assay, conditions: 10 μM ATP; some mean values from multiple determinations; hydrochloride

SMILES	IC50 [nM]
CCN(CC)Cc1ccc2c(c1)NC(=O)c1c(Nc3cc(O)c(C)cc3F)ccnc1N2 [Example 193, 8-[(Diethylamino)methyl]-4-[(2-fluoro-5-hydroxy-4-methylphenyl)amino]-6,11-dihydro-5H-pyrido[2,3-b][1,5]benzodiazepin-5-one hydrochloride]	3.22
